Laboratory results: patent US20240366612A1, “COMPOUNDS AND METHODS FOR MODULATING NUCLEIC ACID SPLICING” (REMIX THERAPEUTICS INC., priority 2021, published 2024)

Columns and labels:
Target C CJ mRNA = test: Gene panel canonical junction qPCR assay, Target C; type: cell-based; conditions: Homo sapiens, larger gene panel, read-out: Target C IC50 (decrease in CJ mRNA levels)
In short: (§1)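 A673 or K562 cells treated 24 h with 11-point 3-fold dilutions (top 10 µM, ≤0.25% DMSO) at 37 °C. Canonical exon-junction mRNA measured by probe-based RT-qPCR, normalized to GAPDH, GUSB or PPIA and DMSO (2^−ΔΔCt), converted to percent response over a fixed ΔCt window; IC50 from 4-parameter fit.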

HTT mRNA = test: Splicing RT-qPCR assay, HTT canonical (CJ) and alternative (AJ) junction mRNA; type: cell-based; conditions: Homo sapiens, A673 or K562 cells, 24 hours treatment; for IC50: decrease in CJ mRNA; for AC50: increase in AJ mRNA
In short: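 Compound-treated A673 or K562 cells (11-point 3-fold dilution, top dose 10 uM final, DMSO ≤0.25%) were incubated for 24 h at 37° C. Lysates underwent one-step RT-qPCR for canonical and alternative-exon junction isoforms. Normalization used PPIA for A673 and GAPDH or GUSB for K562.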

[1] = Cell Titer Glo 2.0 cell viability assay; conditions: human, K562 cells
MYB CJ mRNA = test: Gene panel canonical junction qPCR assay, MYB; type: cell-based; conditions: Homo sapiens, larger gene panel, read-out: MYB IC50 (decrease in CJ mRNA levels)
In short: as §1

SMN2 CJ mRNA = test: Gene panel canonical junction qPCR assay, SMN2; type: cell-based; conditions: Homo sapiens, larger gene panel, read-out: SMN2 IC50 (decrease in CJ mRNA levels)
In short: as §1

IC50 (Target C CJ mRNA) [µM] | IC50 (HTT mRNA) [µM] | IC50 (MYB CJ mRNA) [µM] | IC50 (SMN2 CJ mRNA) [µM] | Compound | AC50 (HTT mRNA) [µM] | GI50 at 72 h [1] [µM]
1 to 10 | 0.1 to 1 | 0.1 to 1 | < 0.1 | Cn1cc2cc(-c3cc4ncn(C5CCNCC5)c(=O)c4s3)c(F)cc2n1 [Compound 258] | 0.1 to 1 | 1 to 10
0.1 to 1 | 0.1 to 1 | 0.1 to 1 | 0.1 to 1 | Cc1cn2nc(-c3cc4ncn(C5CCNCC5)c(=O)c4s3)cc2c(C)n1 [Compound 262] | 0.1 to 1 | 0.1 to 1

The next lines start with the compound.

Compound | IC50 (Target C CJ mRNA) [µM] | IC50 (HTT mRNA) [µM] | IC50 (MYB CJ mRNA) [µM] | IC50 (SMN2 CJ mRNA) [µM] | AC50 (HTT mRNA) [µM] | GI50 at 72 h [1] [µM]
Cc1cn2nc(-c3cc4ncn(C5CCNCC5)c(=O)c4s3)cc(C)c2n1 [Compound 238, 6-(2,8-dimethylimidazo[1,2-b]pyridazin-6-yl)-3-(piperidin-4-yl)thieno[3,2-d]pyrimidin-4(3H)-one] | 1 to 10 | 0.1 to 1 | 0.1 to 1 | < 0.1 | 0.1 to 1 | 1 to 10
Cc1cc(-c2nn3c(=O)cc(N4CCN(C)CC4)nc3s2)cc2cn(C)nc12 [Compound 210, 2-(2,7-dimethyl-2H-indazol-5-yl)-7-(4-methylpiperazin-1-yl)-5H-[1,3,4]thiadiazolo[3,2-a]pyrimidin-5-one] | 1 to 10 | 1 to 10 | 1 to 10 | 1 to 10 | 1 to 10 | 1 to 10
Cc1cn2nc(-c3nc4ncn(C5CCNCC5)c(=O)c4s3)cc(C)c2n1 [Compound 231, 2-(2,8-dimethylimidazo[1,2-b]pyridazin-6-yl)-6-(piperidin-4-yl)thiazolo[4,5-d]pyrimidin-7(6H)-one] | 1 to 10 | 0.1 to 1 | 0.1 to 1 | 1 to 10 | 0.1 to 1 | 1 to 10
